Patent US20250041356A1, “COMBINATION CANCER THERAPY” (Prokarium Limited, priority 2021, published 2025)

Assays:
[1] = tested on: 4T1-Luc2-1A4 tumour cells; conditions: monitored over 52 days; log-rank (Mantel-Cox) test
Procedure: Dilutions of the attenuated Salmonella Typhimurium strain (MD58) were made in PBS as required to achieve 1×10^9 CFU/100 μl for oral gavage.
6-7-week-old female BALB/c mice were pre-treated orally with 1×10^9 CFU Salmonella MD58 or PBS control. On day 0 mice were inoculated in mammary fat pad #4 with 5×10^5 4T1-Luc2-1A4 tumour cells. […] Primary tumour volumes were measured 3 times per week, lung tumour burden was measured by bioluminescent imaging (BLI) and survival was monitored until 52 days after tumour inoculation

Primary human monocytes = test: In vitro conditioning of primary human monocytes, TNFα release after PAMP/DAMP challenge (ELISA); format: cell-based
Procedure: Primary human monocytes were conditioned in vitro with Salmonella for 30 minutes prior to being washed with an antibiotic to remove all Salmonella and subsequently rested for 6 days in the presence of M-CSF. Following the 6 day rest period, the human monocytes were stimulated with PAMPs, DAMPs or a media only control, and the level of TNFα release measured via ELISA.

| Molecule | survival compared to PBS+saline control [1] | level of release of TNFα compared to cells treated with media (negative control) (Primary human monocytes; challenge other than PAMPs (DAMPs)) | responsiveness to PAMPs and DAMPs, level of release of TNFα (Primary human monocytes; conditioned 30 minutes, rested 6 days with M-CSF, then challenged) |
| --- | --- | --- | --- |
| O=P1(N(CCCl)CCCl)NCCCO1 (stereo not drawn) [PBS+cyclophosphamide, cyclophosphamide] | significantly better survival |  |  |
| β-glucan |  | no difference | only induces hyperresponsiveness in response to challenge with PAMPs |
